For experiment [1], the target named is T1, PIP4K2A (full length protein, SignalChem) (Homo sapiens, UniProt P48426).
T1 construct: 4 nM PIP4K2A (full length protein, SignalChem); purchased SignalChem
T1 sequence (P48426 1-406): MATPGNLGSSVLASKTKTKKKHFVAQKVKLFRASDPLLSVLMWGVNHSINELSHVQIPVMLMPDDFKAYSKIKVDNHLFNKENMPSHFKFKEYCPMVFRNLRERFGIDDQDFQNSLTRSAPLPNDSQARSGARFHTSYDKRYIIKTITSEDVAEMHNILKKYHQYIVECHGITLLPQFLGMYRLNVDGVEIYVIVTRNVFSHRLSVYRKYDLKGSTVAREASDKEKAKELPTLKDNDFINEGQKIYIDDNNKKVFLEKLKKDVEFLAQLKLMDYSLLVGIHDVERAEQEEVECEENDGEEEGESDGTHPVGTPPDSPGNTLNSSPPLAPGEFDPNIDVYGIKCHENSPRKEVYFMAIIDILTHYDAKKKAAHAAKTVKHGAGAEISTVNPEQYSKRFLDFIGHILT
In words: Kinase Assay PIP4K2 A (Sprint); ADP-Glo biochemical assay. As to conditions: Table 2; compounds listed under IC50 range headings. An outline of the steps:
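ADP-Glo luminescence detected ADP after a 1 h RT reaction started with 60 μM ATP solution. Before that, full-length PIP4K2A (4 nM in mix) with 100 μM PI(5)P diC8 was pre-incubated 15 min with compounds in MOPS buffer pH 7.2, 25 mM MgCl2, 0.005% Tween 20. IC50 derived from % inhibition relative to DMSO over 10 three-fold concentrations.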
Background: ADP-Glo turns the ADP formed in a reaction into a luminescent signal.

Another experiment has as its target T2, GST tagged PIP4KtypeIIB (Homo sapiens, UniProt P78356).
T2 construct: made in house; host or cells: E. coli
T2 sequence (P78356 1-416): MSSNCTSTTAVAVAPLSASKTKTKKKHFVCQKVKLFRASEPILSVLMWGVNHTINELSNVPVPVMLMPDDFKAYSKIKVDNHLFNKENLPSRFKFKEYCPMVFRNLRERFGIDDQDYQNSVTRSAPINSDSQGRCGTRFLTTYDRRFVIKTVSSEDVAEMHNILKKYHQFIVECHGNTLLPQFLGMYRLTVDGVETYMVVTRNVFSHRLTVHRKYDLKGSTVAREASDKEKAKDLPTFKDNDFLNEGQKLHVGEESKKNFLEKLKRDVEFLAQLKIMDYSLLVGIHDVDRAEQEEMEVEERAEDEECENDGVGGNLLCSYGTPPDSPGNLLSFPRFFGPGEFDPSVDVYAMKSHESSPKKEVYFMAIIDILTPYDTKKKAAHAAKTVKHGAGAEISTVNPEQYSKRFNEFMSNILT
Briefly: Trans-FI P kinase assay PIP4K2B (PIP4KtypeIIB inhibition assay). The experiment is classed as biochemical. As to conditions: Table 4; compounds listed under IC50 range headings; 100 uM GTP, 5 nM PIP4KIIB; read-out: Trans-FI P kinase assays: PIP4K2B IC50. Put shortly:
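Transcreener FI fluorescence, converted to GDP by calibration, tracked product from 5 nM E. coli-expressed GST-PIP4KIIB acting on 80 uM PI5P (DOPE carrier) with 100 uM GTP. Compound (top 4.8 uM final, 5% DMSO) was preincubated 1 h at 27 C before the 2 h reaction; IC50 fitted from residual activity.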

Some results are limits rather than exact numbers.

Turning to `CC(C)Cn1cnnc1-c1ccc(-c2cncc(-c3ccnc4c3cc3n4CCN(C)C3=O)c2)cc1` [Example 383, 4-(5-(4-(4-isobutyl-4H-1,2,4-triazol-3-yl)phenyl)pyridin-3-yl)-7-methyl-8,9-dihydropyrido[3′,2′:4,5]pyrrolo[1,2-a]pyrazin-6(7H)-one], the values for the IC50 (in experiment [1]; on GST tagged PIP4KtypeIIB) were 100 to 1000 nM and 10 to 100 nM, respectively.

As for `CN1CCn2c(cc3c(-c4cncc(-c5ccc(C(=O)N6CCC7(CC7)C6)cc5)c4)ccnc32)C1=O` [Example 230, 4-(5-(4-(5-azaspiro[2.4]heptane-5-carbonyl)phenyl)pyridin-3-yl)-7-methyl-8,9-dihydropyrido[3′,2′:4,5]pyrrolo[1,2-a]pyrazin-6(7H)-one], the 50% inhibitory concentration (IC50) (in experiment [1]; at GST tagged PIP4KtypeIIB) was 100 to 1000 nM in each case.

On to `CN1CCn2c(cc3c(-c4cncc(-c5ccc(N6CCCS6(=O)=O)cc5)c4)ccnc32)C1=O` [Example 386, 4-(5-(4-(1,1-dioxidoisothiazolidin-2-yl)phenyl)pyridin-3-yl)-7-methyl-8,9-dihydropyrido[3′,2′:4,5]pyrrolo[1,2-a]pyrazin-6(7H)-one], for which the IC50 (in experiment [1]; on GST tagged PIP4KtypeIIB) was 100 to 1000 nM each time.

On to `O=C(Nc1ccccn1)c1cc2c(-c3cncc(-c4ccc(N5CCCC5=O)cc4)c3)ccnc2[nH]1` [Example 312, 4-(5-(4-(2-oxopyrrolidin-1-yl)phenyl)pyridin-3-yl)-N-(pyridin-2-yl)-1H-pyrrolo[2,3-b]pyridine-2-carboxamide], for which the IC50 was in the range of 1000 to 2500 nM in experiment [1] and 10 to 100 nM on GST tagged PIP4KtypeIIB.

`O=C(Nc1ccccc1)c1cc2c(-c3cncc(-c4ccc(N5CCCC5=O)cc4)c3)ccnc2[nH]1` [Example 329, 4-(5-(4-(2-oxopyrrolidin-1-yl)phenyl)pyridin-3-yl)-N-phenyl-1H-pyrrolo[2,3-b]pyridine-2-carboxamide]: the IC50 was in the range of 2500 to 5000 nM in experiment [1] and 10 to 100 nM on GST tagged PIP4KtypeIIB.

In the case of `O=C(NCc1nc2ccccc2s1)c1cc2c(-c3cncc(-c4ccc(N5CCCC5=O)cc4)c3)ccnc2[nH]1` [Example 319, N-(benzo[d]thiazol-2-ylmethyl)-4-(5-(4-(2-oxopyrrolidin-1-yl)phenyl)pyridin-3-yl)-1H-pyrrolo[2,3-b]pyridine-2-carboxamide], the values for the IC50 (in experiment [1]; at GST tagged PIP4KtypeIIB) were 100 to 1000 nM and 10 to 100 nM, respectively.

On to `CN1CCn2c(cc3c(-c4cncc(-c5ccc(-c6nncn6C6CCC6)cc5)c4)ccnc32)C1=O` [Example 365, 4-(5-(4-(4-cyclobutyl-4H-1,2,4-triazol-3-yl)phenyl)pyridin-3-yl)-7-methyl-8,9-dihydropyrido[3′,2′:4,5]pyrrolo[1,2-a]pyrazin-6(7H)-one], for which the IC50 was 1000 to 2500 nM in experiment [1] and 10 to 100 nM on GST tagged PIP4KtypeIIB.

Take `CC(C)Cn1cnnc1-c1ccc(-c2cncc(-c3ccnc4c3cc3n4CCN(c4ccccn4)C3=O)c2)cc1` [Example 367, 4-(5-(4-(4-isobutyl-4H-1,2,4-triazol-3-yl)phenyl)pyridin-3-yl)-7-(pyridin-2-yl)-8,9-dihydropyrido[3′,2′:4,5]pyrrolo[1,2-a]pyrazin-6(7H)-one]: the 50% inhibitory concentration (IC50) in experiment [1] lay within 2500 to 5000 nM; on GST tagged PIP4KtypeIIB, 1 to 10 nM.

In the case of `COC(=O)c1cc2c(-c3cncc(-c4ccc(-c5nncn5C(C)C)cc4)c3)ccnc2[nH]1` [Example 211, methyl 4-(5-(4-(4-isopropyl-4H-1,2,4-triazol-3-yl)phenyl)pyridin-3-yl)-1H-pyrrolo[2,3-b]pyridine-2-carboxylate], the IC50 in experiment [1] lay within 5 to 100 nM; at GST tagged PIP4KtypeIIB, 1 to 10 nM.

With `O=C(NCc1cccc2c1COB2O)c1cc2c(-c3cncc(-c4ccc(N5CCCC5=O)cc4)c3)ccnc2[nH]1` [Example 301, N-((1-hydroxy-1,3-dihydrobenzo[c][1,2]oxaborol-4-yl)methyl)-4-(5-(4-(2-oxopyrrolidin-1-yl)phenyl)pyridin-3-yl)-1H-pyrrolo[2,3-b]pyridine-2-carboxamide], the IC50 lay within 5 to 100 nM in experiment [1] and 10 to 100 nM on GST tagged PIP4KtypeIIB.

On to `O=C(c1cc2c(-c3cncc(-c4ccc(N5CCCC5=O)cc4)c3)ccnc2[nH]1)N1CCCC2(CCCO2)C1` (stereo not drawn) [Example 332, 1-(4-(5-(2-(1-oxa-7-azaspiro[4.5]decane-7-carbonyl)-1H-pyrrolo[2,3-b]pyridin-4-yl)pyridin-3-yl)phenyl)pyrrolidin-2-one], for which the IC50 (in experiment [1]; at GST tagged PIP4KtypeIIB) was 100 to 1000 nM throughout.

On to `CC(C)c1cnnn1-c1ccc(-c2cncc(-c3ccnc4c3cc3n4CCN(C)C3=O)c2)cc1` [Example 368, 4-(5-(4-(5-isopropyl-1H-1,2,3-triazol-1-yl)phenyl)pyridin-3-yl)-7-methyl-8,9-dihydropyrido[3′,2′:4,5]pyrrolo[1,2-a]pyrazin-6(7H)-one], for which the concentration for half-maximal inhibition (IC50) in experiment [1] fell in the range of 5 to 100 nM; on GST tagged PIP4KtypeIIB it was 1 to 10 nM.

In the case of `Cc1noc2nccc(-c3cncc(-c4ccc(N5CCCC5=O)cc4)c3)c12` [Example 307, 1-(4-(5-(3-methylisoxazolo[5,4-b]pyridin-4-yl)pyridin-3-yl)phenyl)pyrrolidin-2-one], the half-inhibitory concentration (IC50) in experiment [1] is 1000 to 2500 nM; at GST tagged PIP4KtypeIIB it was 100 to 1000 nM.

For `O=C1CCCN1c1ccc(-c2cncc(-c3cnc4ncc(-c5cccnc5)n4c3)c2)cc1` [Example 344, 1-(4-(5-(3-(pyridin-3-yl)imidazo[1,2-a]pyrimidin-6-yl)pyridin-3-yl)phenyl)pyrrolidin-2-one], the values for the IC50 (in experiment [1]; on GST tagged PIP4KtypeIIB) were 2500 to 5000 nM and above 5000 nM, respectively.

Turning to `CC[C@H](C)n1cnnc1-c1ccc(-c2cncc(-c3ccnc4c3cc3n4CCN(C)C3=O)c2)cc1` [Example 360, (S)-4-(5-(4-(4-(sec-butyl)-4H-1,2,4-triazol-3-yl)phenyl)pyridin-3-yl)-7-methyl-8,9-dihydropyrido[3′,2′:4,5]pyrrolo[1,2-a]pyrazin-6(7H)-one], the IC50 in experiment [1] lay within 100 to 1000 nM; on GST tagged PIP4KtypeIIB, 10 to 100 nM.

Consider `O=C(NCc1cccc2c1B(O)OC2)c1cc2c(-c3cncc(-c4ccc(N5CCCC5=O)cc4)c3)ccnc2[nH]1` [Example 379, N-((1-hydroxy-1,3-dihydrobenzo[c][1,2]oxaborol-7-yl)methyl)-4-(5-(4-(2-oxopyrrolidin-1-yl)phenyl)pyridin-3-yl)-1H-pyrrolo[2,3-b]pyridine-2-carboxamide], for which the IC50 lay within 5 to 100 nM in experiment [1] and 10 to 100 nM on GST tagged PIP4KtypeIIB.

As to `O=C(Nc1ccncc1)c1cc2c(-c3cncc(-c4ccc(N5CCCC5=O)cc4)c3)ccnc2[nH]1` [Example 314, 4-(5-(4-(2-oxopyrrolidin-1-yl)phenyl)pyridin-3-yl)-N-(pyridin-4-yl)-1H-pyrrolo[2,3-b]pyridine-2-carboxamide], the concentration for half-maximal inhibition (IC50) in experiment [1] is 1000 to 2500 nM; at GST tagged PIP4KtypeIIB, 10 to 100 nM.

Take `O=C(c1cc2c(-c3cncc(-c4ccc(N5CCCC5=O)cc4)c3)ccnc2[nH]1)N1CCCC(O)(C2CC2)C1` (stereo not drawn) [Example 210, 1-(4-(5-(2-(3-cyclopropyl-3-hydroxypiperidine-1-carbonyl)-1H-pyrrolo[2,3-b]pyridin-4-yl)pyridin-3-yl)phenyl)pyrrolidin-2-one]: the IC50 (in experiment [1]; at GST tagged PIP4KtypeIIB) was 100 to 1000 nM in each case.

Take `CN1CCn2c(cc3c(-c4cncc(-c5ccc(N6CCC(C)(C)CC6=O)cc5)c4)ccnc32)C1=O` [Example 342, 4-(5-(4-(4,4-dimethyl-2-oxopiperidin-1-yl)phenyl)pyridin-3-yl)-7-methyl-8,9-dihydropyrido[3′,2′:4,5]pyrrolo[1,2-a]pyrazin-6(7H)-one]: the figures for the concentration for half-maximal inhibition (IC50) (in experiment [1]; at GST tagged PIP4KtypeIIB) were 1000 to 2500 nM and 100 to 1000 nM, respectively.

For the molecule `CN1CCn2c(cc3c(-c4cncc(-c5ccc(-c6nncn6CC6CC6)cc5)c4)ccnc32)C1=O` [Example 376, 4-(5-(4-(4-(cyclopropylmethyl)-4H-1,2,4-triazol-3-yl)phenyl)pyridin-3-yl)-7-methyl-8,9-dihydropyrido[3′,2′:4,5]pyrrolo[1,2-a]pyrazin-6(7H)-one], the IC50 is 1000 to 2500 nM in experiment [1] and 10 to 100 nM at GST tagged PIP4KtypeIIB.

For the molecule `O=C1CCCN1c1ccc(-c2cncc(-c3ccnc4c3cc3n4CCN(c4ccc5c(n4)OCCO5)C3=O)c2)cc1` [Example 308, 7-(2,3-dihydro-[1,4]dioxino[2,3-b]pyridin-6-yl)-4-(5-(4-(2-oxopyrrolidin-1-yl)phenyl)pyridin-3-yl)-8,9-dihydropyrido[3′,2′:4,5]pyrrolo[1,2-a]pyrazin-6(7H)-one], the figures for the half-maximal inhibitory concentration (IC50) (in experiment [1]; on GST tagged PIP4KtypeIIB) were 100 to 1000 nM and 1 to 10 nM, respectively.

As usually defined, the IC50 is the concentration that inhibits the measured activity by half.

These data come from patent US11919902B2, “Aryl-bipyridine amine derivatives as phosphatidylinositol phosphate kinase inhibitors” (HiberCell, Inc., priority 2017, dated 2024).
